Data published in US6465482B2, “Arylpiperazinyl-cyclohexyl indole derivatives for the treatment of depression” (Wyeth, priority 1999, dated 2002).
Where a name gives a salt, the structure may show the parent alone.

| melting point | Compound |
| --- | --- |
| 194 to 196 °C | COc1ccc2[nH]cc([C@H]3CC[C@H](N4CCN(c5cccc6[nH]ccc56)CC4)CC3)c2c1 (as salt: HCl) (hydrate or solvate) [Example 8b, 5-Methoxy-3-[trans-4-[4-(1H-indol-4-yl)-1-piperazinyl]cyclohexyl]-1H-indole] |
| 272 to 273.5 °C | COc1ccc(F)cc1N1CCN([C@H]2CC[C@H](c3c[nH]c4ccc(F)cc43)CC2)CC1 (as salt: HCl) [Example 22b, 5-Fluoro-3-{(trans)-4-[4-(5-fluoro-2-methoxy-phenyl)-piperazin-1-yl]-cyclohexyl}-1H-indole] |
| 283 to 285 °C | Fc1cccc2[nH]cc([C@H]3CC[C@@H](N4CCN(c5cccc6[nH]ccc56)CC4)CC3)c12 (as salt: HCl) (hydrate or solvate) [Example 2a, 4-Fluoro-3-[cis-4-[4-(1H-indol-4-yl)-1-piperazinyl]cyclohexyl]-1H-indole] |
| 171 to 174 °C | COc1ccc(F)cc1N1CCN([C@H]2CC[C@@H](c3c[nH]c4ccc(F)cc43)CC2)CC1 (as salt: HCl) [Example 22a, 5-Fluoro-3-{(cis)-4-[4-(5-fluoro-2-methoxy-phenyl)-piperazin-1-yl]-cyclohexyl}-1H-indole] |
| 231 °C | COc1cc(N2CCN([C@H]3CC[C@@H](c4cn(C)c5ccc(C#N)cc54)CC3)CC2)c2ncccc2c1Cl [Example 52e, (cis)-3-{4-[4-(5-Chloro-6-methoxyquinolin-8-yl)piperazin-1-yl]cyclohexyl}-1-methyl-1H-indole-5-carbonitrile] |
| 163 to 165 °C | CN(C)C(=O)c1cc(N2CCN([C@H]3CC[C@@H](c4cn(C)c5ccc(C#N)cc54)CC3)CC2)c2ncccc2c1 (as salt: oxalate) [Example 77a, 8-[4-[(cis)-4-(5-Cyano-1-methyl-1H-indol-3-yl)cyclohexyl]-1-piperazinyl]-N,N-dimethyl-6-quinolincarboxamide] |
| 250 °C | COc1ccccc1N1CCN(C2CC=C(c3c[nH]c4ccc(F)cc34)CC2)CC1 (centres unmarked) (as salt: HCl) [Example 35, 5-Fluoro-3-{4-[4-(2-methoxy-phenyl)-piperazin-1-yl]cyclohex-1-enyl}-1H-indole] |
| 153 to 155 °C | COC(=O)c1cc(N2CCN([C@H]3CC[C@@H](c4cn(C)c5ccc(C#N)cc54)CC3)CC2)c2ncccc2c1 (as salt: oxalate) [Example 75, Methyl 8-[4-[(cis)-4-(5-cyano-1-methyl-1H-indol-3-yl)cyclohexyl]-1-piperazinyl]-6-quinolinecarboxylate] |
| 212 to 213 °C | COc1cc(N2CCN([C@H]3CC[C@H](c4cn(C)c5ccc(C#N)cc54)CC3)CC2)c2ncccc2c1C [Example 52b, (trans)-3-{4-[4-(6-Methoxy-5-methylquinolin-8-yl)piperazin-1-yl]cyclohexyl}-1-methyl-1H-indole-5-carbonitrile] |
| 215 to 216 °C | COc1cc(N2CCN([C@H]3CC[C@H](c4cn(C)c5ccc(C#N)cc54)CC3)CC2)c2ncccc2c1Cl [Example 52f, (trans)-3-{4-[4-(5-Chloro-6-methoxyquinolin-8-yl)piperazin-1-yl]cyclohexyl}-1-methyl-1H-indole-5-carbonitrile] |
| 286 to 288 °C | Cn1cc([C@H]2CC[C@H](N3CCN(c4cccc5[nH]ccc45)CC3)CC2)c2cc(C#N)ccc21 (as salt: HCl) (hydrate or solvate) [Example 12b, 3-{(1,4-trans)-4-[4-(1H-indol-4-yl)-piperazin-1-yl]-cyclohexyl}-1-methyl-1H-indole-5-carbonitrile] |
| 219 to 223 °C | COc1cc(N2CCN([C@H]3CC[C@@H](c4cn(C)c5cc(F)ccc54)CC3)CC2)c2ncccc2c1 [Example 81, 8-{cis-4-[4-(6-Fluoro-1-methyl-1H-indol-3-yl)cyclohexyl]-1-piperazinyl}-6-methoxyquinoline] |
| 201 to 203 °C | COc1cc(N2CCN([C@H]3CC[C@@H](c4cn(C)c5ccc(C#N)cc54)CC3)CC2)c2nc(C)ccc2c1 [Example 51a, (cis)-3-{4-[4-(6-Methoxy-2-methylquinolin-8-yl)piperazin-1-yl]cyclohexyl}-1-methyl-1H-indole-5-carbonitrile] |
| 319 to 320 °C (dec.) | Fc1ccc2c(c1)[nH]cc2[C@H]1CC[C@H](N2CCN(c3cccc4[nH]ccc34)CC2)CC1 (as salt: HCl) [Example 4b, 6-Fluoro-3-[trans-4-[4-(1H-indol-4-yl)-1-piperazinyl]cyclohexyl]-1H-indole] |
| 230 °C | Cn1cc([C@H]2CC[C@@H](N3CCN(c4cc(C(=O)O)cc5cccnc45)CC3)CC2)c2cc(C#N)ccc21 (as salt: oxalate) [Example 73, 8-[4-[(cis)-4-(5-Cyano-1-methyl-1H-indole-3-yl)cyclohexyl]-1-piperazinyl]-6-quinolinecarboxylic Acid] |
| 198 to 200 °C | c1cc(N2CCN([C@H]3CC[C@@H](c4c[nH]c5ccccc54)CC3)CC2)c2cc[nH]c2c1 (as salt: HCl) [Example 1a, 3-[cis-4-[4-(1H-Indol-4-yl)-1-piperazinyl]cyclohexyl]-1H-indole] |
| 160 to 163 °C | CN(C)C(=O)c1cc(N2CCN([C@H]3CC[C@H](c4cn(C)c5ccc(C#N)cc54)CC3)CC2)c2ncccc2c1 [Example 77b, 8-[4-[(trans)-4-(5-Cyano-1-methyl-1H-indol-3-yl)cyclohexyl]-1-piperazinyl]-N,N-dimethyl-6-quinolincarboxamide] |
| 250 to 252 °C (dec.) | Fc1ccc2c(c1)[nH]cc2[C@H]1CC[C@@H](N2CCN(c3cccc4[nH]ccc34)CC2)CC1 (as salt: HCl) [Example 4a, 6-Fluoro-3-[cis-4-[4-(1H-indol-4-yl)-1-piperazinyl]cyclohexyl]-1H-indole] |
| 305 °C (dec.) | c1cc(N2CCN([C@H]3CC[C@H](c4c[nH]c5ccccc54)CC3)CC2)c2cc[nH]c2c1 (as salt: HCl) [Example 1b, 3-[trans-4-[4-(1H-Indol-4-yl)-1-piperazinyl]cyclohexyl]-1H-indole] |

| Compound | melting point |
| --- | --- |
| N#Cc1ccc2[nH]cc([C@H]3CC[C@@H](N4CCN(c5cccc6ccoc56)CC4)CC3)c2c1 (as salt: HCl) (hydrate or solvate) [Example 34a] | 295 to 296 °C |
| c1cc(N2CCN([C@H]3CC[C@H](c4c[nH]c5ncccc54)CC3)CC2)c2cc[nH]c2c1 (as salt: HCl) [Example 10b, 3-{(1,4-trans)-4-[4-(1H-Indole-4-yl)-piperazin-1-yl]-cyclohexyl}-1H-pyrrolo[2,3-b]pyridine] | > 250 °C (dec.) |
| N#Cc1ccc2[nH]cc([C@H]3CC[C@H](N4CCN(c5cccc6[nH]ccc56)CC4)CC3)c2c1 (as salt: HCl) [Example 7b, 3-{4-[(1,4-trans)-4-(1H-Indol-4-yl)-piperazinyl-1-yl]cyclohexyl}-1H-indole-5-carbonitrile] | > 310 °C |
| Fc1cccc2[nH]cc([C@H]3CC[C@@H](N4CCN(c5cccc6c5OCCO6)CC4)CC3)c12 (as salt: HCl) [Example 23a, 3-{(1,4-cis)-4-[4-(2,3-Dihydro-benzo[1,4]dioxin-5-yl)-piperazin-1-yl]-cyclohexyl}-4-fluoro-1H-indole] | 215 to 220 °C |
| Fc1ccc2c(c1)[nH]cc2[C@H]1CC[C@@H](N2CCN(c3cccc4c3OCCO4)CC2)CC1 (as salt: HCl) [Example 25a, 3-{(1,4-cis)-4-[4-(2,3-Dihydro-benzo[1,4]dioxin-5-yl)-piperazin-1-yl]-cyclohexyl}-6-fluoro-1H-indole] | 228 to 230 °C |
| COc1ccc2[nH]cc([C@H]3CC[C@H](N4CCN(c5ccccc5OC)CC4)CC3)c2c1 (as salt: HCl) [Example 20b, 5-Methoxy-3-{(1,4-trans)-4-[4-(2-methoxy-phenyl)-piperazin-1-yl]-cyclohexyl}-1H-indole] | 195 to 197 °C |
| COc1ccccc1C1CCN([C@H]2CC[C@@H](c3c[nH]c4ccc(F)cc43)CC2)CC1 (as salt: HCl) [Example 19a, 5-Fluoro-3-{(1,4-cis)-4-[4-(2-methoxy-phenyl)-piperidin-1-yl]-cyclohexyl}-1H-indole] | 245 to 250 °C |
| COc1ccc2[nH]cc([C@H]3CC[C@@H](N4CCN(c5ccccc5OC)CC4)CC3)c2c1 (as salt: HCl) [Example 20a, 5-Methoxy-3-{(1,4-cis)-4-[4-(2-methoxy-phenyl)-piperazin-1-yl]-cyclohexyl}-1H-indole] | 198 to 199 °C |
| c1cc(N2CCN([C@H]3CC[C@@H](c4c[nH]c5ncccc54)CC3)CC2)c2cc[nH]c2c1 (as salt: HCl) [Example 10a, 3-{(1,4-cis)-4-[4-(1H-Indole-4-yl)-piperazin-1-yl]-cyclohexyl}-1H-pyrrolo[2,3-b]pyridine] | > 250 °C (dec.) |
| COc1ccccc1N1CCN([C@H]2CC[C@@H](c3c[nH]c4ncccc43)CC2)CC1 (as salt: HCl) [Example 21, 3-{(1,4-cis)-4-[4-(2-Methoxy-phenyl)-piperazin-1-yl]-cyclohexyl}-1H-pyrrolo[2,3-b]pyridine] | 259 to 261 °C |
| N#Cc1ccc2[nH]cc([C@H]3CC[C@H](N4CCN(c5cc(F)cc6c5OCC6)CC4)CC3)c2c1 (as salt: HCl) (hydrate or solvate) [Example 33b, 3-{(1,4-trans)-4-[4-(5-Fluoro-2,3-dihydro-benzofuran-7-yl)-piperazin-1-yl]-cyclohexyl}-1H-indole-5-carbonitrile] | 330 to 331 °C |
| CCn1cc([C@H]2CC[C@H](N3CCN(c4cccc5[nH]ccc45)CC3)CC2)c2cc(C#N)ccc21 (as salt: HCl) [Example 13b, 1-Ethyl-3-{(1,4-trans)-4-[4-(1H-indol-4-yl)-piperazin-1-yl]-cyclohexyl}-1H-indole-5-carbonitrile] | 250 °C (dec.) |
| CCn1cc([C@H]2CC[C@@H](N3CCN(c4cccc5[nH]ccc45)CC3)CC2)c2cc(C#N)ccc21 (as salt: HCl) (hydrate or solvate) [Example 13a, 1-Ethyl-3-{(1,4-cis)-4-[4-(1H-indol-4-yl)-piperazin-1-yl]-cyclohexyl}-1H-indole-5-carbonitrile] | 245 °C |
